Here are results for 15 compounds from patent US6432948B1, “USE OF 7-(2-OXA-5,8-DIAZABICYLCO[4.3.0]NON-8-YL)-QUINOLONE CARBOXYLIC ACID AND NAPHTHYRIDON CARBOXYLIC ACID DERIVATIVES FOR THE TREATMENT OF HELIOBACTER PYLORI INFECTIONS AND ASSOCIATED GASTRODUODENAL DISEASES” (Bayer Aktiengesellschaft, priority 1996, dated 2002).

Values after ≈ are worked out from the molar mass of the structure shown. Read-outs that look alike come from different tables or passages of the source.

For data set [1], the system named is H. felis ATCC 49179. The note with it: for Eradication of H. felis in the mouse model, monotherapy: therapeutically used doses; for Clearance % / Clearance (animals cleared / animals per group): infected mice, 2 × 10 mg/kg, 70 day treatment as printed in table title (7 days elsewhere in the source), 5 animals per group. On the procedure:
The bacteria are administered by stomach tube as a suspension (0.1 ml containing 10^8-10^9 bacteria) 4 times in the course of 7 days. Alternatively to this, stomach homogenates of previously infected mice were used for infection.
3-5 days after establishment of the infection, the treatment with test preparations was begun. […] In some cases, the bacterial eradication was also determined 2-4 weeks after the end of treatment. Following the “CLO” test used in clinical diagnosis, a urease test on a microtitre basis was employed. Defined stomach biopsy samples were tested for colour change within 24 hours.

Data set [2] concerns H. pylori NCTC 1163 7. Description: MIC, agar dilution test. The note with it: Helicobacter pylori. The data set is classed as cell-based. On the procedure: . The test substances were tested in replica dishes, which contained falling concentrations of the active compound at in each case doubled dilution. For inoculation, fresh Helicobacter cultures from liquid culture or suspension of the bacteria from agar plates were used. The inoculated agar plates were incubated at 37° C. in an atmosphere containing 5-10% of CO2 for 48-72 hours. The MIC value (mg/l) which was read off indicates the lowest active compound concentration at which no growth was to be detected using the naked eye. The following Helicobacter isolates were used: H. felis ATCC 49179, H. pylori NCTC 1163 7, H. pylori clinical isolate 008.
(In general: In agar dilution, organisms are placed on agar that contains the substance at set levels.)

Data set [3] relates to H. pylori clinical isolate 008. Description: MIC, agar dilution test. The data set is classed as cell-based. The note with it: Helicobacter pylori, Columbia agar or Basis 2 agar with 10% lysed horse blood, 37° C., 48-72 hours, read-out: MIC (mg/l) H. pylori 008. On the procedure:
For inoculation, fresh Helicobacter cultures from liquid culture or suspension of the bacteria from agar plates were used. The inoculated agar plates were incubated at 37° C. in an atmosphere containing 5-10% of CO2 for 48-72 hours.

Where [4] appears, read: NCTC1163, agar dilution test, Columbia agar or Basis 2 agar with 10% lysed horse blood, 37° C., 48-72 hours, read-out: MIC (mg/l) H. pylori 11637.

The melting point is the temperature of the solid-liquid transition. As for `Cl.O=C(O)c1cn([C@@H]2C[C@@H]2F)c2c(F)c(N3C[C@@H]4NCCO[C@@H]4C3)c(F)cc2c1=O`, the melting point was 275 to 280 °C (dec.).

As for `Cl.O=C(O)c1cn([C@@H]2C[C@@H]2F)c2c(Cl)c(N3C[C@@H]4NCCO[C@@H]4C3)c(F)cc2c1=O`, the melting point is 210 to 215 °C (dec.).

In the case of `O=C(O)c1cn([C@@H]2C[C@@H]2F)c2cc(N3C[C@@H]4NCCO[C@@H]4C3)c(F)cc2c1=O` (mixture of isomers) [Example 15, 6-Fluoro-1-(cis-2-fluorocyclopropyl)-1,4-dihydro-7-((1R,6S)-2-oxa-5,8-diazabicyclo[4.3.0]non-8-yl)-4-oxo-3-quinolinecarboxylic acid], the melting point is 236 to 238 °C (dec.).

In the case of `O=C(O)c1cn([C@@H]2C[C@H]2F)c2cc(N3C[C@@H]4NCCO[C@@H]4C3)c(F)cc2c1=O` (mixture of isomers) [Example 19, 6-Fluoro-1-(trans-2-fluorocyclopropyl)-1,4-dihydro-7-((1 R,6S)-2-oxa-5,8-diazabicyclo[4.3.0]non-8-yl)-4-oxo-3-quinolinecarboxylic acid], the melting point was 270 to 274 °C (dec.).

For `O=C(O)c1cn([C@@H]2C[C@H]2F)c2c(Cl)c(N3C[C@@H]4NCCO[C@@H]4C3)c(F)cc2c1=O` (mixture of isomers) [Example 20, 8-Chloro-6-fluoro-1-(trans-2-fluorocyclopropyl)-1,4-dihydro-7-((1R,6S)-2-oxa-5,8-diazabicyclo[4.3.0]non-8-yl)-4-oxo-3-quinolinecarboxylic acid], the melting point is 160 to 164 °C (dec.).

In the case of `O=C(O)c1cn([C@@H]2C[C@H]2F)c2nc(N3C[C@@H]4NCCO[C@@H]4C3)c(F)cc2c1=O` (mixture of isomers) [Example 21, 6-Fluoro-1-(trans-2-fluorocyclopropyl)-1,4-dihydro-7-((1R,6s)-2-oxa-5,8-diazabicyclo[4.3.0]non-8-yl)-4-oxo-1,8-naphthyridine-3-carboxylic acid], the melting point was 310 to 314 °C (dec.).

Take `O=C(O)c1cn(C2CC2)c2c(Cl)c(N3C[C@@H]4CCCN[C@@H]4C3)c(F)cc2c1=O` [BAY Y 3118, 8-chloro-1-cyclopropyl-7-([S,S]-2,8-diazabicyclo[4.3.0]non-8-yl)-6-fluoro-1,4-dihydro-4-oxo-3-quinolinecarboxylic acid, reference compound]: the “Death of animals on account of toxicity at eradicating treatment” value in data set [1] (mouse model, monotherapeutic treatment) is “a large part of the animals not dying on account of the toxicity of the compound”. Besides, in data set [1] (monotherapeutic treatment), the “Eradication of H. felis in the mouse model, monotherapy” value (“Eradication of H. felis” below) is given as “no eradication of H. felis can be achieved”.

With `O=C(O)c1cn(C2CC2)c2cc(N3CCNCC3)c(F)cc2c1=O` [Ciprofloxacin, ciprofloxacin, reference compound], the “Eradication of H. felis” value in data set [1] (monotherapeutic treatment) is listed as “not able to lead to an eradication”. Moreover, in data set [2] (NCTC1163, read-out: MIC (mg/l) H. pylori 11637), the MIC was 0.125 mg/L (≈ 0.377 µM).

For the compound `N#Cc1c(N2CC3NCCOC3C2)c(F)cc2c(=O)c(C(=O)O)cn(C3CC3)c12` (centres unmarked) [Example 1A], the MIC in data set [3] amounted to 0.06 mg/L (≈ 0.151 µM). Also, the “Eradication of the bacterium” value in data set [1] (10-day treatment of the mice with 2×10 mg/kg) is given as “eradication of the bacterium”. Besides, in data set [1], the Clearance % was found to be 100% and the “Clearance (animals cleared / animals per group)” value is reported as 5/5.

Turning to `CN1COc2c(N3CC4NCCOC4C3)c(F)cc3c(=O)c(C(=O)O)cn1c23` [Example 2, 9-Fluoro-3-methyl-10-((1S,6S)-2-oxa-5,8-diazabicyclo[4.3.0]non-8-yl)-7-oxo-2,3-dihydro-7H-pyrido[1,2,3-d.e][1,3,4]benzoxadiazine-6-carboxylic acid], the MIC in data set [3] worked out at 0.06 mg/L (≈ 0.154 µM). Also, in data set [1], the Clearance % stood at 100% and the “Clearance (animals cleared / animals per group)” value was 5/5.

Regarding `CC(CF)(CF)n1cc(C(=O)O)c(=O)c2cc(F)c(N3C[C@@H]4NCCO[C@@H]4C3)cc21` [Example 4, 1-(1-Fluoromethyl-1-methyl-2-fluoroethyl)-6-fluoro-7-[(1R,6S)-2-oxa-5,8-diazabicyclo[4.3.0]non-8-yl]-1,4-dihydro-4-oxo-3-quinolinecarboxylic acid], the values for the MIC in data set [3] and in data set [2] (setting [4]) were 0.25 mg/L (≈ 0.588 µM) and 0.06 mg/L (≈ 0.141 µM), respectively.

For `COc1c(N2C[C@@H]3NCCO[C@@H]3C2)c(F)cc2c(=O)c(C(=O)O)cn(C3CC3)c12.Cl` [Example 6, 1-Cyclopropyl-6-fluoro-8-methoxy-7-[(1R,6S)-2-oxa-5,8-diazabicyclo[4.3.0]non-8-yl]-1,4-dihydro-4-oxo-3-quinolinecarboxylic acid hydrochloride], the MIC in data set [3] and in data set [2] (setting [4]) was 0.06 mg/L each time.

Take `O=C(O)c1cn(C2CC2)c2c(OC(F)F)c(N3CC4NCCOC4C3)c(F)cc2c1=O` [Example 8, 1-Cyclopropyl-8-difluoromethoxy-6-fluoro-1,4-dihydro-7-((1S,6S)-2-oxa-5 8-diazabicyclo[4.3.0]non-8-yl)-4-oxo-3-quinolinecarboxylic acid]: the MIC in data set [3] and in data set [2] (setting [4]) was 0.06 mg/L (≈ 0.137 µM) throughout.

`COc1c(N2C[C@@H]3NCCO[C@H]3C2)c(F)cc2c(=O)c(C(=O)O)cn(C3CC3)c12.Cl` [Example 13]: the MIC in data set [3] was 0.125 mg/L; in data set [2] (setting [4]), 0.06 mg/L.

As to `CCn1cc(C(=O)O)c(=O)c2cc(F)c(N3CCNC(C)C3)c(F)c21` (centres unmarked) [lomefloxacin, reference compound], the “Eradication of H. felis” value in data set [1] (monotherapeutic treatment) is listed as “not able to lead to an eradication”.
